The numbers were not newly measured in US6730319B2, “Pharmaceutical compositions having depressed melting points” (Hoffmann-La Roche Inc., priority 2001, dated 2004), which cites them from elsewhere.

The conditions of this series: in vivo.

Turning to `Cc1c(C)c2c(c(C)c1OC(=O)c1cccnc1)CC[C@@](C)(CCC[C@H](C)CCC[C@H](C)CCCC(C)C)O2` [alpha-tocopherol-nicotinate], the “bioavailability increase in the fed status compared to the fasted state” value is reported as 28 fold.
